Test results published in patent US20210386367A1, “DEVICES AND SYSTEMS FOR GASTROINTESTINAL MICROBIOME DETECTION AND MANIPULATION” (Progenity, Inc., priority 2018, published 2021).
Converted amounts (≈) assume the structure as drawn. Where two headings read alike, the source gives them in different places.

Assays:
[1] = tested on: S. pyogenes ATCC 49399; assay: Broth microdilution MIC (time-kill study); assay type: cell-based, Streptococcus pyogenes
[2] = tested on: S. agalactiae ATCC 13813; assay: Broth microdilution MIC (time-kill study); assay type: cell-based, Streptococcus agalactiae
[3] = tested on: S. agalactiae ATCC 13813; assay: Time-kill assay; assay type: cell-based, Streptococcus agalactiae; conditions: 2×, 4×, 8× MIC; 2, 6, 24 hr
[4] = tested on: Bacteroides fragilis; assay: Agar dilution MIC, 30 clinical isolates; assay type: cell-based
[5] = tested on: S. pneumoniae ATCC 49619; conditions: cited from earlier work
[6] = tested on: S. pneumoniae ATCC 49619; assay: Time-kill assay; assay type: cell-based, Streptococcus pneumoniae; conditions: 2×, 4×, 8× MIC; 2, 6, 24 hr
[7] = tested on: Bacteroides non fragilis clinical isolates; assay: MIC distribution against clinical isolates; assay type: cell-based; conditions: 29 Bacteroides non-fragilis isolates
[8] = tested on: Prevotella spp. clinical isolates; assay: MIC distribution against clinical isolates; assay type: cell-based; conditions: 30 Prevotella spp. isolates
[9] = tested on: E. coli (ATCC 25922, ATCC 35218, MMX 1312); assay: Agar dilution MIC (spontaneous mutation study; strain in conditions); assay type: cell-based, Escherichia coli; conditions: Escherichia coli
[10] = tested on: Bacteroides spp. (B. fragilis ATCC 25285, B. vulgatus, B. ovatus MMX 3503); assay: as above; assay type: cell-based
[11] = tested on: three isolates each of E. coli, Streptococcus spp. and Bacteroides spp.; assay: Time-kill assay, overall summary; assay type: cell-based
Method: MIC values were determined by broth microdilution in accordance with guidelines from the Clinical and Laboratory Standards Institute (CLSI; (1) “Methods for Dilution Antimicrobial Susceptibility Tests for Bacteria That Grow Aerobically; Approved Standard; 11th ed.,” CLSI standard M07, 2018; (2) “Performance Standards for Antimicrobial Susceptibility Testing; 28th ed.,” CLSI supplement M100, 2018).
During the time-kill study, the test flasks were sampled at 2, 6, and 24 hr for determination of viable counts using the track dilution method as described above. Bacteroides was also sampled at 48 hr. All E. coli plates were incubated for 20-24 hr at 35° C., Streptococci for 20-24 hr at 35° C. in a CO2 incubator, and Bacteroides for approximately 48 hr at 35° C. in the anaerobe chamber. Colonies were counted manually, and the CFU/mL was determined from the average count of the duplicate plates, followed by the calculation of the log10 CFU/mL. The limit of detection for the assay was 50 CFU/mL.

[12] = tested on: Streptococcus spp. spontaneous mutants; conditions: S. pneumoniae ATCC 49619; CLSI QC range shown in parentheses; cited from earlier work
[13] = tested on: Streptococcus spp. (S. pneumoniae ATCC 49619, S. pyogenes ATCC 49399, S. agalactiae ATCC 13813); assay: Agar dilution MIC (spontaneous mutation study; strain in conditions); assay type: cell-based
[14] = 30 Bacteroides fragilis clinical isolates

## C[C@@H](O)[C@H]1C(=O)N2C(C(=O)O)=C(S[C@@H]3CN[C@H](C(=O)N(C)C)C3)[C@H](C)[C@H]12 [meropenem]
[1]; S. pyogenes ATCC 49399
  MIC: 4 ng/mL (≈ 0.0104 µM)
[1]; Streptococcus pyogenes, ATCC49399, broth microdilution, read-out: MIC
  MIC: 4 ng/mL (≈ 0.0104 µM)
[2]; S. agalacttae ATCC 13813 (so in the source)
  MIC: 8 ng/mL (≈ 0.0209 µM)
[2]; Streptococcus agalactiae, ATCC13813, broth microdilution, read-out: MIC
  MIC: 8 ng/mL (≈ 0.0209 µM)
[3]
  time-kill kinetics outcome (bactericidal = ≥3 log reduction in CFU per mL): bactericidal effect at 24 hr at 8×MIC
[4]
  isolates with intermediate resistance: Twenty
  relative activity among drugs tested: meropenem and rifaximin had similar activity
[4]; [14]
  % I: 20%
  % S: 80%
  MIC50: 0.25 µg/mL (≈ 0.652 µM)
  MIC90: >8 µg/mL
[4]; Bacteroides fragilis, read-out: MIC50
  MIC50: 0.25 µg/mL (≈ 0.652 µM)
[4]; Bacteroides fragilis, read-out: MIC90
  MIC90: > 8 µg/mL
[4]; modal MIC, 30 Bacteroides fragilis clinical isolates
  Mode: 0.25 µg/mL
[5]
  CLSI QC range (MIC): (0.03-0.25)^1 μg/mL
[6]
  time-kill kinetics outcome (bactericidal = ≥3 log reduction in CFU per mL): all three drug concentrations tested demonstrated bactericidal effects at 24 hr
[7]; MIC 0.06 μg/mL
  Cumulative percentage of isolates inhibited at MIC: 6.9%
  Number of test isolates at MIC: 2
[7]; MIC 0.5 μg/mL
  Cumulative percentage of isolates inhibited at MIC: 75.9%
  Number of test isolates at MIC: 10
[7]; MIC 1 μg/mL
  Cumulative percentage of isolates inhibited at MIC: 82.8%
  Number of test isolates at MIC: 2
[7]; MIC 2 μg/mL
  Cumulative percentage of isolates inhibited at MIC: 93.1%
  Number of test isolates at MIC: 3
[7]; MIC 4 μg/mL
  Cumulative percentage of isolates inhibited at MIC: 96.6%
  Number of test isolates at MIC: 1
[7]; MIC >8 μg/mL
  Cumulative percentage of isolates inhibited at MIC: 100.0%
  Number of test isolates at MIC: 1
[8]; MIC 0.015 μg/mL
  Cumulative percentage of isolates inhibited at MIC: 16.7%
  Number of test isolates at MIC: 3
[8]; MIC 0.03 μg/mL
  Cumulative percentage of isolates inhibited at MIC: 36.7%
  Number of test isolates at MIC: 6
[8]; MIC 0.06 μg/mL
  Cumulative percentage of isolates inhibited at MIC: 76.7%
  Number of test isolates at MIC: 12
[8]; MIC ≤0.008 μg/mL
  Cumulative percentage of isolates inhibited at MIC: 6.7%
  Number of test isolates at MIC: 2
[9]; read-out: Agar MIC, E. coli ATCC 25922
  MIC: 0.015 µg/mL (≈ 0.0391 µM)
[9]; read-out: Agar MIC, E. coli ATCC 35218
  MIC: 0.015 µg/mL (≈ 0.0391 µM)
[9]; read-out: Agar MIC, E. coli MMX 1312
  MIC: 0.015 µg/mL (≈ 0.0391 µM)
[9]; read-out: MIC values (agar dilution), over evaluated E. coli isolates (range stated jointly with other groups)
  MIC: 0.008 to 0.12 µg/mL (≈ 0.0209 to 0.313 µM)
[10]; Bacteroides fragilis, ATCC25285, read-out: Agar MIC
  MIC: 0.12 µg/mL (≈ 0.313 µM)
[10]; Bacteroides ovatus, ATCC25285, read-out: Agar MIC
  MIC: 0.12 µg/mL (≈ 0.313 µM)
[10]; Phocaeicola vulgatus, ATCC 25285 / ATCC 8482, read-out: Agar MIC
  MIC: 0.12 µg/mL (≈ 0.313 µM)
[10]; over evaluated Bacteroides spp., read-out: MIC values (agar dilution)
  MIC: 0.008 to 0.12 µg/mL (≈ 0.0209 to 0.313 µM)
[11]
  overall time-kill outcome: bactericidal activity
[12]
  MIC, CLSI QC range: (0.03-0.25) μg/mL
[13]; Streptococcus agalactiae, S. agalactiae ATCC 13813, read-out: Agar MIC
  MIC: 0.03 µg/mL (≈ 0.0782 µM)
[13]; Streptococcus pneumoniae, S. pneumoniae ATCC 49619, read-out: Agar MIC
  MIC: 0.06 µg/mL (≈ 0.156 µM)
[13]; Streptococcus pyogenes, S. pyogenes ATCC 49399, read-out: Agar MIC
  MIC: 0.008 µg/mL (≈ 0.0209 µM)
[13]; over evaluated Streptococcus spp. (range stated jointly with other groups), read-out: MIC values (agar dilution)
  MIC: 0.008 to 0.12 µg/mL (≈ 0.0209 to 0.313 µM)
